From BindingDB's records for doi:10.1021/jm0301078 (Merck Frosst Centre For Therapeutic Research, 2003) come the findings set out here.

pIC50: −log10 of the molar value.

As usually defined, the pIC50 is the negative decadic logarithm of the IC50, by convention in mol/L.

Holding throughout (experiment): Enzyme Inhibition Assay
Test [1] has as its target T1, Cathepsin K (Homo sapiens, UniProt P43235).
T1 sequence (P43235 whole entry): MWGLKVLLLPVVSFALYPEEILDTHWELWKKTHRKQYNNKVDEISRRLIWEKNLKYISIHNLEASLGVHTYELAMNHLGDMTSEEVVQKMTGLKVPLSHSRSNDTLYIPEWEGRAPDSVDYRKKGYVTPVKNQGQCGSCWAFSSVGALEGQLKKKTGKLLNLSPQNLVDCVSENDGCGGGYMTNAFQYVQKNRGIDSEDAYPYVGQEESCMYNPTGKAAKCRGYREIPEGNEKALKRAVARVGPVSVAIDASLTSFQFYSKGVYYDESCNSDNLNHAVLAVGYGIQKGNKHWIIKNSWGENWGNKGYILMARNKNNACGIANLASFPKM
To be noted: pH 5.5; 22 °C. As to the method:
(§1) Prior to the addition of substrate, different concentrations of the inhibitor ranging from 100 uM to 0.2 nM were preincubated for 15 min with enzyme to allow the establishment of the enzyme-inhibitor complex. The proteolytic cleavage of N-acyl aminocoumarins by cathepsins was conducted in 96-well plate format and the plate read using a Spectramax (Molecular Devices) plate reader. […] The percent inhibition of the reaction was calculated from a control reaction containing only vehicle. IC50 curves were generated by fitting percent inhibition values to a four parameter logistic model (SOFTMAX PRO, Molecular Devices).

Test [2] concerns the target Cathepsin S (Homo sapiens, UniProt P25774). As to the method:
as §1

Test [3] deals with Procathepsin L (Homo sapiens, UniProt P07711). As to the method:
as §1

Sequence of Cathepsin S (P25774 whole entry): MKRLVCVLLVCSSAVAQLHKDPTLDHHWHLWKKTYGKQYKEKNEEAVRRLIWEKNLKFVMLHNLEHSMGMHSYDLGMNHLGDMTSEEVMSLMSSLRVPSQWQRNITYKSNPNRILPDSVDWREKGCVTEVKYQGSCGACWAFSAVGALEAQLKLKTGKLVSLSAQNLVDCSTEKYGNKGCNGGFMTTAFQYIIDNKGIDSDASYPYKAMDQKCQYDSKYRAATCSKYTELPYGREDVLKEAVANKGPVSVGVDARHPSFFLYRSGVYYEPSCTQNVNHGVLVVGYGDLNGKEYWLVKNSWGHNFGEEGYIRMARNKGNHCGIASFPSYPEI
Sequence of Procathepsin L (P07711 whole entry): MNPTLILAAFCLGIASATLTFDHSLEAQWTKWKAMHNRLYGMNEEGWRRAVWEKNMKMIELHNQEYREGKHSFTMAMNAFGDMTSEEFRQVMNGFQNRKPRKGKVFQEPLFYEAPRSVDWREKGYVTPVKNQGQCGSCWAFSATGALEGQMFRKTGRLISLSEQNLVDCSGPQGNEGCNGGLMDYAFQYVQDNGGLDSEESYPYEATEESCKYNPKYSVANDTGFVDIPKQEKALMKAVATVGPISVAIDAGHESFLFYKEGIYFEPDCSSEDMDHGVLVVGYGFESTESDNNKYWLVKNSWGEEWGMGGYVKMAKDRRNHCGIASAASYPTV

Consider `CC(C)C[C@@H](C(=O)NCC#N)c1cccc(-c2ccc(-c3nnn[nH]3)cc2)c1` [(2R)-N-(cyanomethyl)-4-methyl-2-{3-[4-(1H-1,2,3,4-tetrazol-5-yl)phenyl]phenyl}pentanamide], for which the negative logarithm of the IC50 (pIC50) is 5.59 in test [1], under 5.00 in test [2] and under 5.00 in test [3].
Regarding `CC(C)CC(C(=O)NCC#N)c1cccc(-c2ccccn2)c1` (centres undefined) [N-(cyanomethyl)-4-methyl-2-[3-(pyridin-2-yl)phenyl]pentanamide], the pIC50 is 6.10 in test [1], 5.09 in test [2] and 5.23 in test [3].
The matching figures for `CC(C)CC(C(=O)NCC#N)c1cccc(-c2cccnc2)c1` (centres undefined) [N-(cyanomethyl)-4-methyl-2-[3-(pyridin-3-yl)phenyl]pentanamide]: 6.31, under 5.00 and 5.25.
On to `CC(C)CC(C(=O)NCC#N)c1cccc(-c2ccncc2)c1` (centres undefined) [N-(cyanomethyl)-4-methyl-2-[3-(pyridin-4-yl)phenyl]pentanamide], for which the negative logarithm of the IC50 (pIC50) in test [1] is 6.82; in test [2] it was 5.76; in test [3], 5.24.
The matching figures for `CC(C)CC(C(=O)NCC#N)c1cccc(-c2ccccc2N2CCOCC2)c1` (centres undefined) [N-(cyanomethyl)-4-methyl-2-{3-[2-(morpholin-4-yl)phenyl]phenyl}pentanamide]: 6.21, 5.47 and 6.04.
With `CC(C)CC(C(=O)NCC#N)c1cccc(-c2ccccc2N2CCNCC2)c1` (centres undefined) [N-(cyanomethyl)-4-methyl-2-{3-[2-(piperazin-1-yl)phenyl]phenyl}pentanamide], the negative-log IC50 (pIC50) in test [1] was 7.24; in test [2], 6.28; in test [3] it was 6.47.
With `CC(C)CC(C(=O)NCC#N)c1cccc(-c2cccc(N3CCOCC3)c2)c1` (centres undefined) [N-(cyanomethyl)-4-methyl-2-{3-[3-(morpholin-4-yl)phenyl]phenyl}pentanamide], the results for the pIC50 in test [1], in test [2] and in test [3] were 6.20, under 5.00 and under 5.00, respectively.
`CC(C)CC(C(=O)NCC#N)c1cccc(-c2cccc(N3CCNCC3)c2)c1` (centres undefined) [N-(cyanomethyl)-4-methyl-2-{3-[3-(piperazin-1-yl)phenyl]phenyl}pentanamide]: the pIC50 is 6.67 in test [1], under 5.00 in test [2] and under 5.00 in test [3].
